Consider one compound from patent US20200384007A1, “LIPID NANOPARTICLES CONTAINING PHARMACEUTICAL AND/OR NUTRACEUTICAL AGENTS AND METHODS THEREOF” (Board of Regents, The University of Texas System, priority 2019, published 2020).

Each structure is given as a SMILES string. Read-outs that look alike come from different tables or passages of the source.

Data set [1] deals with B16-F10 tumors. Briefly: Antitumor activity of orally administered DHA-dFdC-SLNs in tumor-bearing mice (survival). In kind it is in vivo. As to conditions: oral gavage. How it is done: Female C57BL/6 mice (18-20 g) were subcutaneously (s.c) injected with B16-F10 (5×10^5 cells/mouse) in the right flank on day 0. Seven days later, mice were randomized into 4 groups (n=7-8) and orally gavaged with DHA-dFdC (250 μg/mouse) dissolved in vehicle (Naguib, et al., Neoplasia, 2016, 18, (1), 33-48; Valdes, et al., Pharma. Res., 2017, 34, (6), 1224-1232), DHA-dFdC-SLNs (250 μg/mouse of DHA) dispersed in mannitol 5%, or DHA-dFdC-free SLNs dispersed in mannitol 5%. As a control, one group of mice were left untreated. Treatment was repeated every day until day 11. Mice were allowed to rest for two days, and treatment was resumed on day 13 and continued until day 20. Mice were monitored daily until the endpoint (e.g., death, tumor size reaching 15 mm, tumor ulceration, body weight loss of more than 20%, or other signs of severe distress and discomfort).

The test system of the next data set is M-Wnt cells. Briefly: In vitro cytotoxicity assay (MTT). The data set is classed as cell-based, murine. As to conditions: Mus musculus, 24 h of incubation. How it is done:
(§1) Cytotoxicity of DHA-dFdC-SLNs was evaluated in TC-1, B16-F10, and M-Wnt cells. Cells were seeded into 96-well plates (4000 cells/well for TC-1 and B16-F10 cells, 1000 cells/well for M-Wnt cells) and incubated at 37° C., 5% CO2 overnight. Cells were treated with various concentrations of DHA-dFdC, DHA-dFdC-SLNs, DHA-dFdC-free SLNs, or dimethyl sulfoxide (DMSO) for up to 48 h. As a control, cells were treated with fresh medium. Cell survival was determined using an MTT assay (Naguib et al., Mol. Pharma., 2014; 11(4):1239-1249). DHA-dFdC was dissolved in DMSO and diluted with cell culture media, whereas DHA-dFdC-SLNs and DHA-dFdC-free SLNs were dispersed directly in cell culture media.

The next data set concerns B16-F10 cells. As to the kind of experiment: In vitro cytotoxicity assay (MTT). The settings on record: Mus musculus, B16F10 cells, 48 h of incubation. In kind it is cell-based, murine. How it is done:
as §1

Data set [2] deals with NCI-60 DTP human tumor cell lines. As to conditions: cited from earlier work.
For data set [3] the following is noted: in an aqueous solution, DBA/2 mice; cited from earlier work.
The next data set deals with pancreatic tumor. As to conditions: several mouse models of pancreatic cancer; cited from earlier work.
Data set [4] concerns B16-F10 tumors. As to the kind of experiment: Histology (H&E) of tumor tissues. As to conditions: tumors collected on day 17 after i.v. treatment. In kind it is in vivo, C57BL/6 mice. An excerpt:
Tumor tissues were fixed in formalin, embedded, and stained with hematoxylin and eosin (H&E) in the Histological and Tissue Analysis Facility in the Dell Pediatric Research Institute at The University of Texas at Austin.

The conditions of data set [5]: in water; cited from earlier work.
The test system of data set [6] is B16-F10 tumors. Briefly: Antitumor activity of i.v. DHA-dFdC-SLNs in a mouse model. In kind it is in vivo. The settings on record: 50 mg/kg DHA-dFdC on days 7, 10, 13, 16. How it is done: Female C57BL/6 mice (18-20 g, 6-8 weeks) were subcutaneously (s.c.) injected with B16-F10 (5×10^5 cells/mouse) in the right flank on day 0. Seven days later, mice were randomized in 5 groups (n=5-6) and i.v. injected with DHA-dFdC (1 mg/mouse, equivalent to 50 mg/kg) dissolved a vehicle solution (Tween 80 (10%, w/v), ethanol (5.2%, v/v), and mannitol (5%, w/v) in water), the vehicle solution (as a control) (Naguib et al., Neoplasia, 2016; 18(1):33-48; Valdes et al., Pharma. Res., 2017; 34(6):1224-1232), DHA-dFdC-SLNs (equivalent to 1 mg of DHA-dFdC/mouse), or the equivalent dose of DHA-dFdC-free SLNs; both SLNs were dispersed in sterile mannitol 5%, (w/v). As a control, one group of mice were left untreated. Treatments were repeated every 3 days for a total of 4 times. Mouse health and tumor growth were monitored daily. Tumor size was measured 2-3 times a week, and tumor volume was calculated as: volume (mm^3)=(length×width^2)/2. Mice were euthanized 17 days after B16-F10 cell injection, and tumor tissues were collected for histology study. For untreated mice, the length of some of the tumors reached 15 mm before day 17 and had to be euthanized earlier.

Data set [7] can be described thus: Physical and chemical stability as lyophilized powder or dry waxy solid at room temperature. In kind it is physicochemical. The settings on record: DHA-dFdC-vitamin E (5.047% w/w) waxy solid mixture, 14 days. As to the method: A 30% (w/v) stock solution of sucrose as lyoprotectant was prepared with de-ionized and filtered (0.2 μm) water. 900 μL DHA-dFdC-SLNs in water suspension was mixed with 100 μL sucrose solution to obtain a final suspension having 3% (w/v) sucrose. DHA-dFdC-SLNs in suspension were stored at −20° C. for 30 min, transferred to −80° C. for 60 min, and finally transferred to a VirTis Advantage bench top tray lyophilizer (The VirTis Company, Inc. Gardiner, N.Y.). Lyophilization was performed over 72 hours (h) at pressure less than 200 mTorr under nitrogen atmosphere. The shelf temperature was gradually ramped from −40° C. to 26° C. After lyophilization, samples were sealed and stored in a desiccator at room temperature, protected from light.
To evaluate the physical and chemical stability of DHA-dFdC-SLNs in lyophilized powder, DHA-dFdC was extracted from the powder 0, 7, and 30 days post-storage. Lyophilized samples were reconstituted in 1 mL de-ionized and filtered (0.2 μm) water. […] The sample was re-dissolved in 100 μL of THF, and concentration was measured by HPLC.
As a control, DHA-dFdC was dissolved in ethanol and mixed with vitamin E at a final concentration of 5.047% (w/w) (Naguib et al., Neoplasia, 2016; 18(1):33-48). The solution was dried under nitrogen, sealed, and stored at room temperature, protected from light, and the content of DHA-dFdC was measured at various time points

A short description of data set [8]: Pharmacokinetic studies, oral and i.v. (Example 2). The data set is classed as in vivo, C57BL/6 mice. How it is done: The Institutional Animal Care and Use Committee at The University of Texas at Austin approved the animal protocol. Female C57BL/6 mice (6-8 weeks, Charles River Laboratories, Wilmington, Mass.) were fasted for 3 h. Water was allowed ad libitum. Mice were orally gavaged with DHA-dFdC dissolved in a vehicle solution (Tween 80 (10%, w/v), ethanol (5.2% v/v), and mannitol (5%, w/v) in sterile water) (Naguib, et al., Neoplasia, 2016, 18, (1), 33-48; Valdes, et al., Pharma. Res., 2017, 34, (6), 1224-1232) or the DHA-dFdC-SLNs suspended in a sterile mannitol solution (5%, w/v), or intravenously injected with the DHA-dFdC-SLNs suspended in a sterile mannitol solution (5%, w/v). The dose of DHA-dFdC was 2 mg per mouse. Mice (n=3) were euthanized at various time points (e.g., 0.25, 0.5, 1, 2, 5, 8, 12, and 24 h). Blood was collected into heparin-coated tubes, which were then centrifuged at 13,000 rcf for 20 min to isolate plasma. The plasma (200 μL) was mixed with 200 μL of isopropanol and 200 μL of cold PBS, vortexed and then incubated at 4° C. for 5 min Following incubation, 1000 μl of ethyl acetate was added. The mixture was vortexed for 5 min, followed by centrifugation at 18,000 rcf for 5 min. The supernatant was collected and dried under nitrogen. Finally, the residue was re-dissolved in 100 μl of THF, which was then analyzed using HPLC (Naguib, et al., Neoplasia, 2016, 18, (1), 33-48). As internal control 4-(N)-stearoyl 2′,2′-difluorodeoxycytidine (GemC18) was added in the samples before extraction (Sloat, et al., Intl. J. Pharma., 2011, 409, (1), 278-288). Data were analyzed using PK Solver®, assuming a two-compartmental model (Wang, et al., Oncotarget, 2017, 8, (52), 89876).

Setting [9] is: oral administration, 2 mg DHA-dFdC per mouse.

The term IC50 denotes the concentration needed to halve the response being measured. A lower IC50 goes with inhibition by little substance. The term bioavailability denotes dose-corrected exposure relative to a reference, in per cent. High values mean much systemic uptake, low ones little systemic uptake. In general, Tmax refers to the time from dosing to the highest level. As usually defined, the Cmax is the peak of the concentration-time curve. In the case of `CC/C=C\C/C=C\C/C=C\C/C=C\C/C=C\C/C=C\CCC(=O)Nc1ccn(C2OC(CO)C(O)C2(F)F)c(=O)n1` (stereo not shown) [DHA-dFdC, 4-(N)-docosahexaenoyl 2′, 2′-difluorodeoxycytidine], the “survival compared to untreated mice” value with B16-F10 tumors [1] (250 μg DHA-dFdC per mouse daily for 12 days) is “did not significantly affect mouse survival”. The “mice showing signs of toxicity (body weight decrease of more than 20% or severe tumor ulceration)” value in the data set on B16-F10 tumors [1] (in Tween 80/ethanol/water solution, 250 μg per mouse daily) turned out to be 62.5%. Inhibition with M-Wnt cells was half-maximal at 2150 nM (IC50). Moreover, the half-maximal inhibitory concentration (IC50) with B16-F10 cells is 1810 nM. Besides, the antitumor activity result in [2] was “potent and broad spectrum antitumor activity”. In data set [3], the “repeat dose-maximum tolerated dose” value is listed as 50 mg/kg. In addition, the “control of pancreatic tumor growth versus gemcitabine” value in the data set on pancreatic tumor is reported as “significantly more effective than the molar equivalent dose of gemcitabine”. The “H&E histology findings in tumors” value with B16-F10 tumors [4] is “vascular collapse, high desmoplasia, and necrotic areas”. Moreover, the intrinsic solubility in data set [5] was ~25 µg/mL. Besides, in the data set with B16-F10 tumors [6], the tumor growth delay is recorded as 4 days and the “tumor size / control of tumor growth versus comparison groups” value is reported as “no significant difference”. Besides, in [7], the “DHA-dFdC left after storage” value is recorded as 19.1%±7.0. The compound also gave a bioavailability in data set [8] (female, C57BL/6, mouse, plasma, 2 mg per mouse, oral, in Tween 80/ethanol/water solution) of 54%. Also, in data set [8] (female, C57BL/6, mouse, plasma, po, 2 mg, oral administration, 2 mg DHA-dFdC per mouse, read-out: Tmax), the Tmax turned out to be 1.7 h. For the same compound, in data set [8] (female, C57BL/6, plasma, oral administration, 2 mg DHA-dFdC per mouse), the highest concentration (Cmax) was 10500 ng/mL. Moreover, the AUC(0-t) in data set [8] (female, C57BL/6, plasma, oral administration, 2 mg DHA-dFdC per mouse, read-out: AUC 0-24) was 114 µg·h/mL. Moreover, in [8] (setting [9]), the T1/2α is given as 1.07 h, the Tmax is listed as 1.75 h and the k12 amounted to 0.56 h⁻¹.
